pIC50, pKd: −log10 of the molar value. Several values for one entry are separate records, joined by “and”; a condition that tells them apart may be missing. Equal entries are not always repeated.
Legend:
full-length BTK protein = biological target: T1, full-length BTK protein (Homo sapiens, UniProt Q06187); assay: BTK binding assay (Kd, Eurofins DiscoverX); conditions: for pKd: full-length BTK, absence of DTT in the buffer, duplicates
T1 construct: Kd was measured using the full-length BTK protein by Eurofins DiscoverX; T7 phage fusion or DNA tag for qPCR (generic vendor protocol); purchased Eurofins DiscoverX
Description: The dissociation equilibrium constant Kd was measured using the full-length BTK protein by Eurofins DiscoverX according to the following protocol: kinase-tagged T7 phage strains were prepared in an E. coli host derived from the BL21 strain. E. coli were grown to log-phase and infected with T7 phage and incubated with shaking at 32 °C until lysis. The lysates were centrifuged and filtered to remove cell debris. The remaining kinases were produced in HEK-293 cells and subsequently tagged with DNA for qPCR detection. […] The liganded beads were blocked with excess biotin and washed with blocking buffer (SeaBlock (Pierce), 1% BSA, 0.05% Tween 20, 1 mM DTT) to remove unbound ligand and to reduce non-specific binding. […] Test compounds were prepared as 111X stocks in 100% DMSO. […] The compounds were then diluted directly into the assays such that the final concentration of DMSO was 0.9%. All reactions performed in polypropylene 384-well plate. Each was a final volume of 0.02 mL. […] The kinase concentration in the eluates was measured by qPCR. For kinase-binding constant determination, an 11-point 3-fold serial dilution of each test compound was prepared in 100% DMSO at 100x final test concentration and subsequently diluted to 1x in the assay (final DMSO concentration = 1%). […] Binding constants (Kd values) were calculated with a standard dose-response curve using the Hill equation: Response=Background+Signal−Background/1+KdHillSlope/Dose^HillSlope
The Hill Slope was set to −1. Curves were fitted using a non-linear least square fit with the Levenberg-Marquardt algorithm.

NanoLuc-CRBN fusion = biological target: T2, NanoLuc-CRBN fusion (Homo sapiens, UniProt Q96SW2); assay: NanoBRET CRBN in-cell target engagement assay; assay type: cell-based; conditions: for NanoBRET(%): Figure 3b
T2 construct: host or cells: HEK 293T/17
Description: The target engagement assay for BTK or CRBN was from Promega (BTK kit, Cat. No. N2500; CRBN kit, Cat. No. CS1810C136) and was performed according to the manufacture’s instruction with some modifications. […] After 2 h incubation, the 3X Nano-Glo® Substrate with NanoLuc® extracellular inhibitor were added to cells and developed for 3 min at room temperature. BRET signals were collected using a BioTek SYNERGY H1 microplate reader equipped with a 450/80-nm BP filter for donor emission and a 610-nm LP filter for acceptor emission. BRET Ratio was calculated with the equation: [(Acceptor sample/Donor sample)–(Acceptor no tracer control/Donor no tracer control)] × 1000. The IC50 of the compound against its BTK or CRBN tracer was calculated using GraphPad Prism software.

BTK = BTK (Mus musculus, UniProt P35991); assay: BTK degradation in mouse B-cell lymphoma cell line derived from Eu-Myc mice; assay type: cell-based; set-up: endogenous in cells; host or cells: B cell lymphoma cell line derived from Eu-Myc mice; conditions: Supplementary Figure 10, replicates, DMSO about 100
Description: MOLM-14 cell line was obtained from Dr. Conneely at Baylor College of Medicine, and the Mino cells were purchased from the American Type Culture Collection (ATCC, Cat. No. CRL-3000). Both cell lines were cultured in RPMI 1640 medium (Thermo Fisher Scientific, Cat. No. MT10040CV) supplemented with 10% fetal bovine serum (GE Healthcare, Cat. No. SH30071.03) and 1% Pen/Strep (Thermo Fisher Scientific, Cat. No. 15140163). The wild-type and C481S BTK XLA cell lines were gifts from Dr. Woyach at The Ohio State University and were cultured in RPMI 1640 medium with 15% fetal bovine serum, 1% Pen/Strep, and 1.0 µg/ml puromycin (Thermo Fisher Scientific, Cat. No. A1113803). HEK 293T/17 cells were purchased from ATCC (Cat. No. CRL-11268) were maintained in DMEM (Thermo Fisher Scientific, Cat. No. MT10013CV) with 10% fetal bovine serum and 1% Pen-Strep. The B cell lymphoma cell line derived from Eu-Myc mice was a gift from Dr. Yulin Li at Houston Methodist Research Institute and cultured in RPMI 1640 medium supplemented with 15% (v/v) fetal bovine serum (FBS), 100 U/mL penicillin, 100 μg/mL streptomycin, and 0.05 mM beta-mercaptoethanol and puromycin (1 μg/mL). Cells were grown at 37 °C with 5% CO2.
The collected cells and spleen tissues were lysed in RIPA lysis buffer (50 mM Tris-HCl, pH 7.4, 150 mM NaCl, 1% NP-40, 0.5% sodium deoxycholate, 0.1% SDS) supplemented with Halt™ Protease and Phosphatase Inhibitor Cocktail (Thermo Fisher Scientific, Cat. No. PI78440) immediately before use. Lysates were centrifuged at 15,000 × g for 10 min at 4 °C and the supernatant was quantified for total protein concentration using the Pierce BCA Protein Assay (Thermo Fisher Scientific, Cat. No. 23225). Thirty micrograms of protein were loaded onto sodium dodecyl sulfate−polyacrylamide gel for electrophoresis (Bio-Rad) and transferred onto PVDF membranes (Millipore, Cat. No. IPVH00010). […] Imaging was performed using the ECL Prime chemiluminescent western blot detection reagents (GE Healthcare, Cat. No. RPN2232) by visualization of the blots to X-Ray film or with an Imager (Kindle Biosciences, Cat. No. D1001). All western blots were subsequently processed and quantified with Imager software. Protein level was normalized to β-actin or GAPDH loading controls.

Maver-1 = assay: IC50 in MCL cell lines (Supplementary Table 2), Maver-1; conditions: for pIC50: Maver-1, triplicates; for Cell Viability (%): Maver-1 cells, replicate wells
[1] = BTK_+DTT, compound concentration 0.00491 nM
[2] = BTK_+DTT, compound concentration 0.0147 nM
[3] = BTK_+DTT, compound concentration 0.0442 nM
[4] = BTK_+DTT, compound concentration 0.133 nM
[5] = BTK_+DTT, compound concentration 0.398 nM
[6] = BTK_+DTT, compound concentration 1.19 nM
[7] = BTK_+DTT, compound concentration 3.58 nM
[8] = BTK_+DTT, compound concentration 10.7 nM
[9] = BTK_+DTT, compound concentration 32.2 nM
[10] = BTK_+DTT, compound concentration 96.7 nM
[11] = BTK_+DTT, compound concentration 290 nM
[12] = BTK_-DTT, compound concentration 0.0152 nM
[13] = BTK_-DTT, compound concentration 0.0457 nM
[14] = BTK_-DTT, compound concentration 0.137 nM
[15] = BTK_-DTT, compound concentration 0.412 nM
[16] = BTK_-DTT, compound concentration 1.23 nM
[17] = BTK_-DTT, compound concentration 3.7 nM
[18] = BTK_-DTT, compound concentration 11.1 nM
[19] = BTK_-DTT, compound concentration 33.3 nM
[20] = BTK_-DTT, compound concentration 100 nM
[21] = BTK_-DTT, compound concentration 300 nM

T2 sequence (Q96SW2 whole entry, the tested form may be a part): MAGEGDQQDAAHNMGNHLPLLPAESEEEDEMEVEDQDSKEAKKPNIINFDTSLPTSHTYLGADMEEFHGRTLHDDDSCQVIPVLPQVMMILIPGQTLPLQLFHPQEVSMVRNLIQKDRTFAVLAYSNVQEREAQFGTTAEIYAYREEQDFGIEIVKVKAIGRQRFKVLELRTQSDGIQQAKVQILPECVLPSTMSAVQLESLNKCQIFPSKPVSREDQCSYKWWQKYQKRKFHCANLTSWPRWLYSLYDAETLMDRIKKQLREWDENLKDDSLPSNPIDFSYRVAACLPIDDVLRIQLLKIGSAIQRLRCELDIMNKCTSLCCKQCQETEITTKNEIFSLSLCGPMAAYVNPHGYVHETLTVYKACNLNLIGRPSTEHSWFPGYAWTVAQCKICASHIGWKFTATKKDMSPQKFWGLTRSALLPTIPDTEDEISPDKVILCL
T2 sequence (Q16531 whole entry partner, the tested form may be a part): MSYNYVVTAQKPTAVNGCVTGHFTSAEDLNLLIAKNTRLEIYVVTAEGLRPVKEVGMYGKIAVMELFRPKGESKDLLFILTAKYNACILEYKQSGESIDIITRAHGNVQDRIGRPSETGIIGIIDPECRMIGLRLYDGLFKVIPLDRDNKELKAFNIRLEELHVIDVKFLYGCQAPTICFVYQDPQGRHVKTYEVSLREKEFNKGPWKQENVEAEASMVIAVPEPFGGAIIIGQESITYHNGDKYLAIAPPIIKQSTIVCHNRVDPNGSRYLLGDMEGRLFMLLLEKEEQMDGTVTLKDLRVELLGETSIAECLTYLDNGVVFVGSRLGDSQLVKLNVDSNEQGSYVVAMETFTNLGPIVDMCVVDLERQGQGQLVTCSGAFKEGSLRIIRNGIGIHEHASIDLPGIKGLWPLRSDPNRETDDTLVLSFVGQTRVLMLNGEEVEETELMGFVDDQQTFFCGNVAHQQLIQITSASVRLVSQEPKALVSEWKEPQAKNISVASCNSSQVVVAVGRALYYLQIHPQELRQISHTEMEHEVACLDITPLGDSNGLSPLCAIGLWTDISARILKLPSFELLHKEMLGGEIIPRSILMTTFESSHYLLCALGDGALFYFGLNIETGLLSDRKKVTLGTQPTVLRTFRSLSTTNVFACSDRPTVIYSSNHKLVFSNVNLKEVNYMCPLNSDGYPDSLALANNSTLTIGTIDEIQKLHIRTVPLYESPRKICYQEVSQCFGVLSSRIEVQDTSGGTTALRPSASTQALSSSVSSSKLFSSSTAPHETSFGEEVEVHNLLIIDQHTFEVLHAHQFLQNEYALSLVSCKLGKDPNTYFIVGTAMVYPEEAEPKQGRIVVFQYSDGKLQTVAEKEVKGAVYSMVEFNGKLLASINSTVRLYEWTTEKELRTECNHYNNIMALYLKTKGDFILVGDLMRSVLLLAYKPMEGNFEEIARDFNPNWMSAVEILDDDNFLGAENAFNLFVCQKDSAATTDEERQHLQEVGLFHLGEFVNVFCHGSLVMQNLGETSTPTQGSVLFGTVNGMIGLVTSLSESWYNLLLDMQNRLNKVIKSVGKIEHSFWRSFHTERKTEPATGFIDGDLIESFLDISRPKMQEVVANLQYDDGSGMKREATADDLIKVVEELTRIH
T1 sequence (Q06187 whole entry, the tested form may be a part): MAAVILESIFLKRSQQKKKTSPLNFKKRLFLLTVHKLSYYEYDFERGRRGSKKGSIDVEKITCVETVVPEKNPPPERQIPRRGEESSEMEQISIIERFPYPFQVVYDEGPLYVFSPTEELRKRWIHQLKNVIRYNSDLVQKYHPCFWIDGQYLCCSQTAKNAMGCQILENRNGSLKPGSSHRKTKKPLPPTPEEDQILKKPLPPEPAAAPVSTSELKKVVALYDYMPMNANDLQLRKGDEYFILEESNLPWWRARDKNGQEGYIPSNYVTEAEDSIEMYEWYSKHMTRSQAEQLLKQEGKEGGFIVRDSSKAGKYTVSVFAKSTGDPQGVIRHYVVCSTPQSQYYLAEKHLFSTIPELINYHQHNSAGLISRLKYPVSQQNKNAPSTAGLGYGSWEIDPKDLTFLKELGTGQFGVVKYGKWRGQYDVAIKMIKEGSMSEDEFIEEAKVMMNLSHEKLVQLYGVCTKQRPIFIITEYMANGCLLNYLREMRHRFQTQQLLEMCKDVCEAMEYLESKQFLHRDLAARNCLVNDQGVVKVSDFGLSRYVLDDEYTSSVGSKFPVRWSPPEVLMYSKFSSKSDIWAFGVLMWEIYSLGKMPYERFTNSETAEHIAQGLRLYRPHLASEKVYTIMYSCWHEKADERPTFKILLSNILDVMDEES
Chain of BTK (P35991 whole entry): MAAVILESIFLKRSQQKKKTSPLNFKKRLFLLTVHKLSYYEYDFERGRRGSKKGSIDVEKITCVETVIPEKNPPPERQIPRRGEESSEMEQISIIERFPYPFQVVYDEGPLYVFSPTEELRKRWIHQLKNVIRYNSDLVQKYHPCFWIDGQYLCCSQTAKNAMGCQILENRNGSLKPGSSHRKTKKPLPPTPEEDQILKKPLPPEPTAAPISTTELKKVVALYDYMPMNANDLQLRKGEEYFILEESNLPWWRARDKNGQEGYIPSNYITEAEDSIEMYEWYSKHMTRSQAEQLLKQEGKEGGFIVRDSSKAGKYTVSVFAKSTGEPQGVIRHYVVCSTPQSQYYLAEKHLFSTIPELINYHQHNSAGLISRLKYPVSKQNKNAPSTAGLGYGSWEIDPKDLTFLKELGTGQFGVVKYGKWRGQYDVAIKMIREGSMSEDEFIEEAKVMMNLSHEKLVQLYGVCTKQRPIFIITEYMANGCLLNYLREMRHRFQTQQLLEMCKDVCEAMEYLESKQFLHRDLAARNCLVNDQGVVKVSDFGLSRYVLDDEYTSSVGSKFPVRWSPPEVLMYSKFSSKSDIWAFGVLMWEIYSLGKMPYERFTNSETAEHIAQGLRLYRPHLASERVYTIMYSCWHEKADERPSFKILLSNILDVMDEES

Structure (SMILES) | Signal (full-length BTK protein; [1]) | Signal (full-length BTK protein; [2]) | Signal (full-length BTK protein; [3]) | Signal (full-length BTK protein; [4]) | Signal (full-length BTK protein; [5]) | Signal (full-length BTK protein; [6]) | Signal (full-length BTK protein; [7]) | Signal (full-length BTK protein; [8]) | Signal (full-length BTK protein; [9]) | Signal (full-length BTK protein; [10]) | Signal (full-length BTK protein; [11]) | Signal (full-length BTK protein; [12]) | Signal (full-length BTK protein; [13]) | Signal (full-length BTK protein; [14]) | Signal (full-length BTK protein; [15]) | Signal (full-length BTK protein; [16]) | Signal (full-length BTK protein; [17]) | Signal (full-length BTK protein; [18]) | Signal (full-length BTK protein; [19]) | Signal (full-length BTK protein; [20]) | other results
CN(CC=CC(=O)N1CCCC(n2nc(-c3ccc(Oc4ccccc4)cc3)c3c(N)ncnc32)C1)CCCNC(=O)CNc1cccc2c1C(=O)N(C1CCC(=O)NC1=O)C2=O (centres unmarked) [IRC-1] | 2.11E-05 and 2.14E-05 | 1.62E-05 and 1.97E-05 | 2.15E-05 and 2.03E-05 | 2.11E-05 and 2.33E-05 | 1.86E-05 and 1.95E-05 | 1.43E-05 and 1.52E-05 | 1.06E-05 and 1.08E-05 | 5.42E-06 and 5.34E-06 | 1.75E-06 and 1.73E-06 | 3.47E-07 and 3.72E-07 | 8.87E-08 and 9.98E-08 | 1.52E-05 and 1.19E-05 | 1.62E-05 and 1.68E-05 | 1.78E-05 and 1.76E-05 | 1.29E-05 and 1.60E-05 | 1.07E-05 and 1.11E-05 | 7.15E-06 and 6.34E-06 | 3.52E-06 and 2.70E-06 | 1.15E-06 | 3.02E-07 and 3.08E-07 | Signal (full-length BTK protein; [21]): 1.03E-07 and 9.31E-08; pKd (full-length BTK protein): 8.52; NanoBRET(%) (NanoLuc-CRBN fusion; 1.00E-05 M, triplicates): 14.8662% and 22.7538% and 22.1529%; NanoBRET(%) (NanoLuc-CRBN fusion; 1.60E-08 M, triplicates): 80.9317% and 101.051% and 94.8942%; NanoBRET(%) (NanoLuc-CRBN fusion; 2.00E-06 M, triplicates): 31.3092% and 33.6262% and 37.1463%; NanoBRET(%) (NanoLuc-CRBN fusion; 3.20E-09 M, triplicates): 91.4483% and 90.0848%; NanoBRET(%) (NanoLuc-CRBN fusion; 4.00E-07 M, triplicates): 56.7638% and 59.2904%; NanoBRET(%) (NanoLuc-CRBN fusion; 8.00E-08 M, triplicates): 86.864% and 89.7074% and 93.5853%; pIC50 (NanoLuc-CRBN fusion; HEK-293 cells, CRBN tracer 0.5 µM, triplicates, read-out: CRBN target engagement IC50,TE): 6.07; K′P,D (relative intracellular accumulation coefficient) (NanoLuc-CRBN fusion; Kd (CRBN)/IC50,TE (CRBN)): 1.7; CRBN engagement (NanoLuc-CRBN fusion; at 400 nM): ~ 40%; intracellular accumulation of RC-1 relative to the compound (NanoLuc-CRBN fusion; from K′P,D values, CRBN (Table 2)): 10 fold; CRBN target engagement IC50 relative to that of RC-1 (NanoLuc-CRBN fusion; ratio compound/RC-1): 3 fold; BTK quantification (anti-BTK / anti-β-actin) (BTK; 8 nM): 93.1337 and 89.8918; BTK quantification (anti-BTK / anti-β-actin) (BTK; 40 nM): 73.5656 and 73.5943; BTK quantification (anti-BTK / anti-β-actin) (BTK; 200 nM): 64.1549 and 63.4726
CN1C(=O)CCC(N2C(=O)c3cccc(NCC(=O)NCCCN(C)C(C)(C)C=C(C#N)C(=O)N4CCCC(n5nc(-c6ccc(Oc7ccccc7)cc6)c6c(N)ncnc65)C4)c3C2=O)C1=O (centres unmarked) [RC-1-Me] | – | – | – | – | – | – | – | – | – | – | – | – | – | – | – | – | – | – | – | – | pIC50 (Maver-1): 5.38; Cell Viability (%) (Maver-1; 1.25E-06 M): 75.2061% and 69.0199% and 79.2231%; Cell Viability (%) (Maver-1; 1.56E-07 M): 95.5665% and 93.8239% and 93.1905%; Cell Viability (%) (Maver-1; 2.50E-06 M): 67.4512% and 61.3175% and 56.7459%; Cell Viability (%) (Maver-1; 3.13E-07 M): 94.477% and 92.288% and 91.2083%; Cell Viability (%) (Maver-1; 5.00E-06 M): 42.5652% and 49.5981% and 48.479%; Cell Viability (%) (Maver-1; 6.25E-07 M): 91.2247% and 87.9954% and 86.7647%; Cell Viability (%) (Maver-1; 7.81E-08 M): 97.0795% and 100.847% and 94.9725%
CC(C)(C)C=C(C#N)C(=O)N1CCCC(n2nc(-c3ccc(Oc4ccccc4)cc3)c3c(N)ncnc32)C1 (centres unmarked) [RC-Ctrl] | 2.09E-05 and 2.12E-05 | 2.23E-05 and 2.05E-05 | 2.23E-05 and 2.20E-05 | 2.05E-05 | 2.13E-05 and 2.22E-05 | 1.80E-05 and 1.97E-05 | 1.78E-05 and 1.71E-05 | 1.50E-05 and 1.39E-05 | 7.62E-06 and 7.96E-06 | 2.20E-06 and 2.08E-06 | 4.82E-07 and 5.26E-07 | 1.69E-05 and 1.12E-05 | 1.66E-05 and 1.75E-05 | 1.87E-05 and 1.52E-05 | 1.34E-05 and 1.41E-05 | 1.48E-05 and 1.35E-05 | 1.31E-05 and 1.42E-05 | 6.46E-06 and 6.66E-06 | 2.78E-06 and 2.85E-06 | 8.37E-07 and 7.44E-07 | Signal (full-length BTK protein; [21]): 2.56E-07 and 2.49E-07; pKd (full-length BTK protein): 8.04; pIC50 (Maver-1): < 5.30; Cell Viability (%) (Maver-1; 1.25E-06 M): 92.5899% and 86.5612% and 87.595%; Cell Viability (%) (Maver-1; 1.56E-07 M): 103.384% and 106.186% and 101.772%; Cell Viability (%) (Maver-1; 2.50E-06 M): 81.7599% and 80.9854% and 82.1702%; Cell Viability (%) (Maver-1; 3.13E-07 M): 99.5605% and 94.4048% and 98.8352%; Cell Viability (%) (Maver-1; 5.00E-06 M): 60.4937% and 62.4464% and 56.8706%; Cell Viability (%) (Maver-1; 6.25E-07 M): 97.5323% and 94.4409% and 89.8332%; Cell Viability (%) (Maver-1; 7.81E-08 M): 103.555% and 102.055% and 101.769%

From paper PMC7450057, “Enhancing intracellular accumulation and target engagement of PROTACs with reversible covalent chemistry” (Nature Communications, 2020)
